1 molecule from patent publication US8809274B2, “Adhesive hemostatic agent based on porcine atelocollagen and method for production thereof” (Dalim Biotech Co., Ltd., priority 2008, dated 2014) can be followed below.

The test has as its system blood. Description: Effect of tranexamic acid on blood coagulation (Example 5). Type of test: cell-based. The settings on record: Experimental Condition F: 0.25 mL of 0.02/0.05/0.1 wt % tranexamic acid in distilled water alone; 0.5 mL blood. On the procedure:
While tranexamic acid, a hemostatic agent with antifibrinolytic activity, was used under the above-described conditions, the time taken to induce blood clots was monitored.
—Experimental Condition A • 1. 0.5 mL of blood was placed on each Petri-dish. • 2. A mixture of 0.25 mL of the solution of Example 1 and 0.25 mL of the 1 wt % calcium chloride solution containing 0.71 wt % of DOPA and 0.02 wt % of tranexamic acid was added to the Petri-dish of 1. • 3. A mixture of 0.25 mL of the solution of Example 1 and 0.25 mL of the 1 wt % calcium chloride solution containing 0.71 wt % of DOPA and 0.05 wt % of tranexamic acid was added to the Petri-dish of 1. • 4. A mixture of 0.25 mL of the solution of Example 1 and 0.25 mL of the 1 wt % calcium chloride solution containing 0.71 wt % of DOPA and 0.1 wt % of tranexamic acid was added to the Petri-dish of 1. • 5. Reactions in the Petri-dishes were observed.
—Experimental Condition B • 1. 0.5 mL of blood was placed on each Petri-dish. • 2. A mixture of 0.25 mL of the solution of Example 1 and 0.25 mL of the 1.5 wt % calcium chloride solution containing 0.67 wt % of DOPA and 0.02 wt % of tranexamic acid was added to the Petri-dish of 1. • 3. A mixture of 0.25 mL of the solution of Example 1 and 0.25 mL of the 1.5 wt % calcium chloride solution containing 0.67 wt % of DOPA and 0.05 wt % of tranexamic acid was added to the Petri-dish of 1. • 4. […]

With `NC[C@H]1CC[C@H](C(=O)O)CC1` [tranexamic acid], the blood coagulation rate result is on record as “at lower rates than when in the presence of the esterified atelocollagen”.
